# Test system: guinea pigs exposed to smoke of cigarette
# Assay: Cigarette smoke exposure guinea pig COPD model, respiratory functions by Double-chamber Plethymograph method
# Assay type: in vivo, Hartley strain guinea pigs
# Settings: 10 mg/kg orally once a day; for Changes in Peak expiration flow / Changes in Specific airway resistance value: change vs value before exposure to cigarette smoke
# Method: In accordance with the method of Jun-ichi Fuchikami, et al. (Japanese Journal of Pharmacology, 2000, (82), p. 247), the following pharmacological test was conducted.
# Hartley strain guinea pigs (5 weeks age, body weight: 300 to 379.5 g) were exposed to smoke of cigarette (trade name: Hi-Light, manufactured by Japan Tobacco Inc.) for 1 hour/day, 5 days a week, during 4 weeks, by using a flow-past type nose-only inhalation chamber, manufactured by Muenster Co. Control group as a normal group was exposed to the atmospheric air instead of cigarette smoke.
# Compound A was suspended in 0.5% tragacanth gum aqueous solution, and this suspension was orally administered compulsorily to the guinea pigs (compound A administered group), in the amount of 10 mg/kg once a day, 1 hour before the exposure to cigarette smoke in the day of exposure, and in the morning in the day of non-exposure, respectively.
# To the guinea pigs in the vehicle administered group, a 0.5% tragacanth gum aqueous solution without containing Compound A was orally administered instead of the suspension of compound A.
# While, to the guinea pigs in the control group, neither the 0.5% tragacanth aqueous solution nor the compound A suspension were administered.
# Before exposure and during the period of 4 weeks of exposure to the smoke of cigarette, the respiratory functions (specific airway resistance and peak expiration flow) of the guinea pigs were non-invasively assessed once a week under conscious condition, using Double-chamber Plethymograph method with a respiratory function measuring equipment (Pulmos-I, manufactured by M.I.P.S. Co.).
# The respiratory functions (i.e., values of specific airway resistance and peak expiration flow) were obtained as an average of 100 times measured values of the functions, and were shown as the changes of percentage to the respective value of respiratory function measured before exposure to cigarette smoke.
smiles,measurement,setting,value
"CCOc1ccc(-c2nc(-c3cccc(C(=O)O)n3)cs2)cc1OCC [Compound A, 6-[2-(3,4-diethoxyphenyl)thiazol-4-yl]pyridine-2-carboxylic acid]",Effect on specific airway resistance and peak expiration flow as compared with vehicle administered group,4 weeks cigarette smoke exposure,excellent improving effects
same,Changes in Peak expiration flow,1 Week after exposure,9.67%
same,Changes in Specific airway resistance value,1 Week after exposure,12.75%
same,Changes in Peak expiration flow,2 Week after exposure,15.67%
same,Changes in Specific airway resistance value,2 Week after exposure,41.82%
same,Changes in Peak expiration flow,3 Week after exposure,14.08%
same,Changes in Specific airway resistance value,3 Week after exposure,61.08%
same,Changes in Peak expiration flow,4 Week after exposure,37.06%
same,Changes in Specific airway resistance value,4 Week after exposure,51.26%
